Measurements reported in ChEMBL document CHEMBL1127743, “Structure-based design of HIV-1 protease inhibitors: replacement of two amides and a 10 pi-aromatic system by a fused bis-tetrahydrofuran” (J Med Chem, 1994).

Tests used:
[1] = target: Human immunodeficiency virus type 1 protease (Human immunodeficiency virus 1) (UniProt Q72874)
Description: Tested for antiviral potency against HIV protease enzyme

[2] = target: Human immunodeficiency virus type 1 protease (Human immunodeficiency virus 1, UniProt Q72874); experiment: Tested for inhibitory activity against HIV protease enzyme

SMILES: CC(C)(C)NC(=O)[C@@H]1C[C@@H]2CCCC[C@@H]2CN1C[C@@H](O)[C@H](Cc1ccccc1)NC(=O)O[C@@H]1CO[C@@H]2OCC[C@@H]21
- IC95 [1]: 200 nM
- IC50 [2]: 6.4 nM
